In patent US10808008B2, “Aromatic-cationic peptides and uses of same” (Cornell University, priority 2012, dated 2020):

How the values were obtained:
[1] = target: cardiolipin-cytochrome c complex (Equus caballus, UniProt P00004); assay: Cytochrome c reduction in the presence of cardiolipin; format: biochemical; settings: 40 μM peptide; 20 μM cytochrome c, 100 μg/ml cardiolipin, 50 μM ascorbate; 10% with cardiolipin alone
Method: Reduction of cytochrome c (20 μM) was induced by the addition of glutathione (500 μM) in the absence or presence of CL (100 μg/ml) (FIG. 15A). Reduction of cytochrome c was monitored by absorbance at 550 nm using a 96-well UV-VIS plate reader (Molecular Devices). Addition of CL decreased the rate of cytochrome c reduction by half.
The time course of cytochrome c reduction by ascorbate was recorded at 550 nm and 570 nm using a 96-well plate reader (Molecular Devices, Sunnyvale, Calif.). For all reactions, cytochrome c was preincubated with cardiolipin in the presence or absence of SS peptides for 1 min. […] Ascorbate (50 μM) was added to initiate the reduction of cytochrome c, and the absorbance was recorded for 5 min. The rate of reduction was calculated based on slope of the change in absorbance intensity of 550 nm over 570 nm.

[2] = target: cytochrome c/cardiolipin complex (Equus caballus, UniProt P00004); assay: Soret circular dichroism of cytochrome c with cardiolipin; format: biochemical; settings: 10 μM cytochrome c, 30 μg/ml cardiolipin, peptide 1:1 with cytochrome c; pH 7.4
Method: Circular dichroism (CD) was carried out to examine the effects of the peptides on protecting the heme environment of cytochrome c from the acyl chain of CL. For heme proteins, the Soret CD spectrum is strictly correlated with the heme pocket conformation. In particular, the negative 416-420 nm Cotton effect is considered diagnostic of Fe(III)-Met80 coordination in native cytochrome c (Santucci and Ascoli, 1997). […] CD spectra were obtained using AVIV CD Spectrometer Model 410.
Changes in the Soret CD spectrum of cytochrome c (10 μM) were recorded in the absence (dotted line) and presence (dashed line) of 30 μg/ml CL, plus addition of different peptides (10 μM) (solid line) (FIG. 14). CD measurements were carried out using 20 mM HEPES, pH 7.5, at 25° C. and expressed as molar ellipticity (A) (m Deg). […] Accordingly, aromatic-cationic peptides of the present disclosure are useful for the prevention or treatment of diseases or disorders characterized by dysregulation of cardiolipin and/or cytochrome c, and/or diseases or disorders characterized by dysregulation of the cardiolipin/cytochrome c interaction. In addition, aromatic-cationic peptides of the present disclosure are useful to protect the heme environment of cytochrome c from the acyl chain of cardiolipin.
Circular Dichroism (CD) spectra were collected with an AVIA 62 DS spectrophotometer equipped with a sample temperature controller. CD spectra of the Soret region (370-450 nm) were recorded with 10-mm path length cells containing 20 mM Hepes, pH 7.4, and 10 μM cytochrome c, in the presence or absence of 30 μg/ml cardiolipin and different SS peptide analogs (SS-02, [atn]SS-02, [ald]SS-02, and SS-31). The maximum lipid concentration was kept low to avoid spectral distortions due to excessive light scattering. All measurements were done at 25° C. All spectra were corrected for background, and the final spectrum shown represents the average of at least three experiments.

[3] = Fluorescence spectroscopy of labelled peptide with other phospholipids; format: binding; settings: POPA, DPPG, POPS, cardiolipin
Method: 1-palmitoyl-2-oleoyl-sn-glycero-3-phosphocholine (POPC), 1-palmitoyl-2-oleoyl-sn-glycero-3-phosphate (POPA), 1-palmitoyl-2-oleoyl-sn-glycero-3-phospho-L-serine (POPS), 1-palmitoyl-2-oleoyl-sn-glycero-3-phosphoethanolamine (PE), and 1,2-dipalmitoyl-sn-glycero-3-phospho-(1′-rac-glycerol) (DPPG) were obtained from Avanti Polar Lipids Inc (Alabaster, Ala.).
Changes in the emission intensity of the [atn]SS-02 and the [ald]SS-02 were measured using a Hitachi F-4500 fluorescence spectrophotometer. The different solvents used to dissolve the various phospholipids (chloroform, methanol and ethanol) had negligible effect on the fluorescence spectrum of [atn]SS-02 and [ald]SS-02. All experiments were done in low ionic solution (deionized water) to optimize electrostatic interactions of peptides with phospholipids.

[4] = target: cytochrome c and cardiolipin (Equus caballus, UniProt P00004); assay: Oxidation of ferrous cytochrome c by cardiolipin (A550); format: biochemical; settings: 20 μM cytochrome c reduced by 50 μM ascorbic acid; 100 μg/ml cardiolipin
Method: Cytochrome c (20 μM) was reduced by 50 μM ascorbic acid until all available functionally active cytochrome c was reduced. The reduction of cytochrome c was monitored by the appearance of a peak at 550 nm in its absorbance spectrum (Molecular Devices, Sunnyvale, Calif.). […] The rate of oxidation was calculated based on slope of the change in absorbance intensity of 550 nm over 570 nm.

cytochrome c/CL complex = cytochrome c/CL complex (Equus caballus, UniProt P00004); assay: Peroxidase activity of cytochrome c/cardiolipin complex (Amplex Red); format: biochemical; settings: 10 μM peptide; 2 μM cytochrome c; cardiolipin 100 μg/ml
Excerpt: The six coordination of the heme in cytochrome c prevents direct interaction of H2O2 with the catalytic metal site, and native cytochrome c in solution is a poor peroxidase. Upon interaction with CL, cytochrome c undergoes a structural change with rupture of the Fe-Met80 coordination. […] The mechanism of action of cytochrome c peroxidase is similar to that of other peroxidases, such as horse radish peroxidase (HRP). Thus it is possible to use the amplex red-HRP reaction to investigate cytochrome c peroxidase activity. In the presence of peroxidase, amplex red (AR) reacts with H2O2 to form the red-fluorescent oxidation product, resorufin (Ex/Em=571/585).
Cytochrome c (2 μM) was mixed with CL (25 μg/ml) and 10 μM H2O2 in 20 mM HEPES, pH 7.4. Amplex red (50 μM) was then added and fluorescence emission monitored in real time using Hitachi F4500 fluorescence spectrophotometer. Addition of amplex red elicited rapid increase in fluorescence signal due to resorufin formation, providing direct evidence for peroxidase activity of cytochrome c/CL complex (FIG. 19A).
Assessment of cytochrome c peroxidase activity was achieved using the Amplex® Red assay (Invitrogen/Life Technologies, Carlsbad, Calif.). Amplex® Red is a reagent that reacts with H2O2 in a 1:1 stoichiometry to produce highly fluorescent resorufin (λex/λem=570/585) in the presence of a peroxidase. In this assay, cytochrome c is added in place of horseradish peroxidase. 2 μM cytochrome c was incubated with cardiolipin or cardiolipin-POPC liposomes (10 μg/ml) for 1 min in 20 mM HEPES (pH 7.4) or deionized water prior to the addition of 50 μM Amplex® Red reagent and 10 μM H2O2, and the reaction was allowed to proceed for an additional 5 minutes. The continuous time course data were obtained using Hitachi F-4500 fluorescence spectrophotometer. When comparing the different SS peptide analogs (10 μM) in inhibiting peroxidase activity cytochrome c (2 μM) in the presence of cardiolipin (100 μg/ml), a microplate spectrofluorometer (Molecular Devices, Sunnyvale, Calif.) was used. Horseradish peroxidase (HRP) was used for comparison, and the HRP concentration (0.001 U/ml) was optimized to match the rate of Amplex® Red peroxidation by cardiolipin-cytochrome c complex.

cytochrome c [5] = target: T1, cytochrome c (Equus caballus, UniProt P00004); assay: Fluorescence quenching of labelled peptides by cytochrome c; format: binding, horse; design: from tissue; host or cells: horse heart; settings: Example 22; additions of cytochrome c (2 μM)
Method: Maximal fluorescence emission of SS-19 was monitored at 420 nm following excitation at 320 nm using Hitachi F-4500 fluorescence spectrophotometer.
The quenching by cytochrome c was not displaced by sequential additions of bovine serum albumin (FIG. 12C, A+arrows) (500 μg/ml). […] Accordingly, aromatic-cationic peptides of the present disclosure are useful for the prevention or treatment of diseases or disorders characterized by dysregulation of cytochrome c.
Fluorescence emission of SS-19 (10 μM) was monitored in real time (Ex/Em=320 nm/420 nm) using Hitachi F-4500 fluorescence spectrophotometer.
Interaction of SS peptides with horse heart cytochrome c in the absence or presence of free cardiolipin or cardiolipin/POPC (1:1) liposomes (prepared as described in Example 22) was examined by fluorescence quenching of [atn]SS-02 (λex/λem=320/420 nm) and [ald]SS-02 (λex/λem=360/510 nm) upon addition of cytochrome c (using a Hitachi F-4500 fluorescence spectrophotometer). The solvents used to dissolve cardiolipin and POPC had negligible effect on cytochrome c-dependent quenching of these peptides. All experiments were done in low ionic solution (deionized water) or 20 mM Hepes pH 7.4.

cytochrome c [6] = target: T1, cytochrome c; assay: as above; format: binding, horse; design: from tissue; host or cells: horse heart; settings: additions of 75 μg/ml BSA

T1 sequence (P00004 2-105 limits assumed): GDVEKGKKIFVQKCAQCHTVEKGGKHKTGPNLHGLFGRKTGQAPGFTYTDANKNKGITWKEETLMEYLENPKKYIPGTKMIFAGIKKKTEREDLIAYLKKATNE
Chain of cytochrome c/CL complex (P00004 2-105 limits assumed, one chain of several): as the sequence (P00004 2-105 limits assumed) above
Chain of cardiolipin-cytochrome c complex (P00004 2-105 limits assumed, one chain of several): as the sequence (P00004 2-105 limits assumed) above
Chain of cytochrome c and cardiolipin (P00004 2-105 limits assumed): as above
Chain of cytochrome c/cardiolipin complex (P00004 2-105 limits assumed, one chain of several): as the sequence (P00004 2-105 limits assumed) above

Substance | rate of cytochrome c reduction in the presence of cardiolipin [1] | loss of the negative Cotton peak at 419 nm caused by cardiolipin [2] | specificity of peptide-phospholipid interaction [3] | oxidation of cytochrome c by cardiolipin (loss of the 550 nm peak) [4] | peroxidation rate of cytochrome c (cytochrome c/CL complex) | quenching of fluorescence by cytochrome c (cytochrome c [5]) | reversal of cytochrome c quenching by BSA (cytochrome c [6])
2′,6′-Dmt-D-Arg-Phe-Lys-NH2 [SS-02] | about 60% | prevented | specific for phospholipids with anionic headgroups | inhibition of cytochrome c oxidation | about 70 % of control | – | –
tetramethylrhodamine methyl ester [TMRM, reference compound] | – | – | – | – | – | slightly quenched | completely reversed quenching
